7 molecules from ChEMBL document CHEMBL3414444, “Antiplasmodial activity: the first proof of inhibition of heme crystallization by marine isonitriles” (Eur J Med Chem, 2015) can be followed below.

pIC50: −log10 of the molar value.

The test system of data set [1] is Plasmodium falciparum. Briefly: Antiplasmodial activity against Plasmodium falciparum K1. Format: functional, organism-based.
Data set [2] relates to Plasmodium falciparum. Description: Antiplasmodial activity against Plasmodium falciparum W2. The data set is classed as functional, organism-based.
Data set [3] relates to Plasmodium falciparum. Description: Antiplasmodial activity against Plasmodium falciparum D6. The data set is classed as functional, organism-based.
Data set [4] can be described thus: Inhibition of beta-hematin formation after 3 to 5 mins by EBHIA assay. Format: physicochemical.
Data set [5] has as its system Plasmodium falciparum. Briefly: Antiplasmodial activity against Plasmodium falciparum NF54. The data set is classed as functional, organism-based.

`[C-]#[N+][C@@]1(C)CC[C@H]2[C@H]3[C@@H]4[C@H](C[C@@H](C)[C@@](C)(N=C=O)[C@H]4CC[C@@H]31)C[C@@H]2C` showed a negative logarithm of the IC50 (pIC50) with Plasmodium falciparum [1] of 8.05.

As to `[C-]#[N+][C@@]1(C)CC[C@H]2[C@H]3[C@H]4C(=CC(C)(C)C[C@@H]4C[C@@H]2C)CC[C@@H]31`, the negative-log IC50 (pIC50) in the data set with Plasmodium falciparum [2] is 7.62; in the data set with Plasmodium falciparum [3], 7.08; with Plasmodium falciparum [1], 7.62. Also, the “inhibition (INH)” value in data set [4] was 26%.

Molecule `CC(C)=CCC[C@@H](C)[C@H]1CC[C@](C)(N=C=S)[C@H]2CCC(C)=C[C@H]12` had a pIC50 in the data set with Plasmodium falciparum [1] of under 4.52.

Take `[C-]#[N+][C@]1(C)CC[C@H](/C(C)=C\C=C\C(C)C)CC1`: the “inhibition (INH)” value in data set [4] was determined as 62%.

Take `CC1=CC2C(CC1)[C@](C)(N=C=S)CC[C@@H]2C(C)C` (stereo partly drawn): the negative logarithm of the IC50 (pIC50) in the data set with Plasmodium falciparum [1] and in the data set on Plasmodium falciparum [5] was 5.24 each time. The “inhibition (INH)” value in data set [4] turned out to be 71%.

`[C-]#[N+][C@@]1(C)CC[C@H]2[C@H]3[C@@H](C(=C)CC[C@@H]31)[C@@H](C=C(C)C)C[C@@H]2C` gave a negative logarithm of the IC50 (pIC50) with Plasmodium falciparum [2] of 6.37. Also, the “inhibition (INH)” value in data set [4] came to 14%.

With `CCN(CC)CCCC(C)Nc1ccnc2cc(Cl)ccc12` (stereo not drawn) [CHLOROQUINE], the “inhibition (INH)” value in data set [4] is listed as 4%.

Broadly, the pIC50 is −log10 of the IC50, conventionally taken in molar units. Low values mean a large IC50, high ones a small IC50.
